# In ChEMBL document CHEMBL5500384, “New synergistic benzoquinone scaffolds as inhibitors of mycobacterial cytochrome bc1 complex to treat multi-drug resistant tuberculosis” (Eur J Med Chem, 2024):
# Columns and labels:
# [1] = Pulmonary toxicity in Albino mouse assessed as change in alveolar sacs at 50 to 2000 mg/kg, po measured after 14 days; assay type: organism-based; details: in vivo, 336 h, dose 50-2000 mg/kg, time 14 day
# [2] = Acute toxicity in Albino mouse assessed as change in LDH level at 50 to 2000 mg/kg, po measured after 14 days (reference value: 1052 IU/L); assay type: organism-based; details: in vivo, 336 h, dose 50-2000 mg/kg, time 14 day
# [3] = Acute toxicity in Albino mouse assessed as change in SGOT count at 50 to 2000 mg/kg, po measured after 14 days (reference value: 42 IU/L); assay type: organism-based; details: in vivo, 336 h, dose 50-2000 mg/kg, time 14 day
# [4] = Cytotoxicity against african green monkey Vero cells assessed as cell viability at 6.25 ug/ml by MTT assay; assay type: toxicity, cell-based; details: chlorocebus sabaeus, at 6.25 µg/mL, read-out: Activity
# [5] = Acute toxicity in Albino mouse assessed as mortality at 300 mg/kg, po after 5 to 8 hrs; assay type: organism-based; details: in vivo, time 5-8 hrs
# [6] = Acute toxicity in Albino mouse assessed as change in SGPT count at 50 to 2000 mg/kg, po measured after 14 days (reference value: 52 IU/L); assay type: organism-based; details: in vivo, 336 h, dose 50-2000 mg/kg, time 14 day
# [7] = Renal toxicity in Albino mouse assessed as change in renal corpuscles at 50 to 2000 mg/kg, po measured after 14 days; assay type: organism-based; details: in vivo, 336 h, dose 50-2000 mg/kg, time 14 day
# [8] = Renal toxicity in Albino mouse assessed as change in renal tubules at 50 to 2000 mg/kg, po measured after 14 days; assay type: organism-based; details: in vivo, 336 h, dose 50-2000 mg/kg, time 14 day
# [9] = Pulmonary toxicity in Albino mouse assessed as change in squamous pneumocytes at 50 to 2000 mg/kg, po measured after 14 days; assay type: organism-based; details: in vivo, 336 h, dose 50-2000 mg/kg, time 14 day
# [10] = Cytotoxicity against african green monkey Vero cells assessed as cell viability at 50 ug/ml by MTT assay; assay type: toxicity, cell-based; details: chlorocebus sabaeus, at 50 µg/mL, read-out: Activity
# [11] = Hepatotoxicity in Albino mouse assessed as change in portal vein at 50 to 2000 mg/kg, po measured after 14 days; assay type: toxicity, organism-based; details: in vivo, 336 h, dose 50-2000 mg/kg, time 14 day
# [12] = Acute toxicity in Albino mouse assessed as change in hemoglobin level at 50 to 2000 mg/kg, po measured after 14 days (reference value: 12.8 g/dl); assay type: organism-based; details: in vivo, 336 h, dose 50-2000 mg/kg, time 14 day
# [13] = Pulmonary toxicity in Albino mouse assessed as appearance of cilia at 50 to 2000 mg/kg, po measured after 14 days; assay type: organism-based; details: in vivo, 336 h, dose 50-2000 mg/kg, time 14 day
# [14] = Pulmonary toxicity in Albino mouse assessed as change in bronchi structure at 50 to 2000 mg/kg, po measured after 14 days; assay type: organism-based; details: in vivo, 336 h, dose 50-2000 mg/kg, time 14 day
# [15] = Acute toxicity in Albino mouse assessed as change in serum urea level at 50 to 2000 mg/kg, po measured after 14 days (reference value: 46 mg/dl); assay type: organism-based; details: in vivo, 336 h, dose 50-2000 mg/kg, time 14 day
# [16] = Acute toxicity in Albino mouse assessed as change in platelet count at 50 to 2000 mg/kg, po measured after 14 days (reference value: 3.24 mm3); assay type: organism-based; set-up: unit not given here; details: in vivo, 336 h, dose 50-2000 mg/kg, time 14 day
# [17] = Acute toxicity in Albino mouse assessed as change in total leucocyte count at 50 to 2000 mg/kg, po measured after 14 days (reference value: 7400 mm3); assay type: organism-based; details: in vivo, 336 h, dose 50-2000 mg/kg, time 14 day
# [18] = Renal toxicity in Albino mouse assessed as structural absorbability abnormalities at 50 to 2000 mg/kg, po measured after 14 days; assay type: organism-based; details: in vivo, 336 h, dose 50-2000 mg/kg, time 14 day
# [19] = Renal toxicity in Albino mouse assessed as extravasation of RBC at 50 to 2000 mg/kg, po measured after 14 days; assay type: organism-based, Erythrocyte; details: in vivo, 336 h, dose 50-2000 mg/kg, time 14 day
# [20] = Acute toxicity in Albino mouse assessed as change in ALP level at 50 to 2000 mg/kg, po measured after 14 days (reference value: 28 IU/L); assay type: organism-based; details: in vivo, 336 h, dose 50-2000 mg/kg, time 14 day
# [21] = Acute toxicity in Albino mouse assessed as change in neutrophils at 50 to 2000 mg/kg, po measured after 14 days (reference value: 75%); assay type: organism-based; details: in vivo, 336 h, dose 50-2000 mg/kg, time 14 day
# [22] = Hepatotoxicity in Albino mouse assessed as change in bile duct at 50 to 2000 mg/kg, po measured after 14 days; assay type: toxicity, organism-based, Liver; details: in vivo, 336 h, dose 50-2000 mg/kg, time 14 day
# [23] = Cytotoxicity against african green monkey Vero cells by MTT assay; assay type: toxicity, cell-based; details: chlorocebus sabaeus
# [24] = Hepatotoxicity in Albino mouse assessed as change in hepatocytes at 50 to 2000 mg/kg, po measured after 14 days; assay type: toxicity, organism-based; details: in vivo, 336 h, dose 50-2000 mg/kg, time 14 day
# [25] = Acute toxicity in Albino mouse assessed as change in serum creatine level at 50 to 2000 mg/kg, po measured after 14 days (reference value: 0.9 mg/dl); assay type: organism-based; details: in vivo, 336 h, dose 50-2000 mg/kg, time 14 day
# [26] = Acute toxicity in Albino mouse assessed as change in lymphocytes at 50 to 2000 mg/kg, po measured after 14 days (reference value: 21%); assay type: organism-based; details: in vivo, 336 h, dose 50-2000 mg/kg, time 14 day
# [27] = Renal toxicity in Albino mouse assessed as change in distal convoluted tubules at 50 to 2000 mg/kg, po measured after 14 days; assay type: organism-based; details: in vivo, 336 h, dose 50-2000 mg/kg, time 14 day
# [28] = Acute toxicity in Albino mouse assessed as mortality at 2000 mg/kg, po after 2 to 4 hrs; assay type: organism-based; details: in vivo, time 2-4 hrs
# [29] = Renal toxicity in Albino mouse assessed as change in proximal convoluted tubules at 50 to 2000 mg/kg, po measured after 14 days; assay type: organism-based; details: in vivo, 336 h, dose 50-2000 mg/kg, time 14 day
# [30] = Pulmonary toxicity in Albino mouse assessed as appearance of goblet cells at 50 to 2000 mg/kg, po measured after 14 days; assay type: organism-based; details: in vivo, 336 h, dose 50-2000 mg/kg, time 14 day
# [31] = Hepatotoxicity in Albino mouse assessed as change in portal tracks at 50 to 2000 mg/kg, po measured after 14 days; assay type: toxicity, organism-based; details: in vivo, 336 h, dose 50-2000 mg/kg, time 14 day
# [32] = Acute toxicity in po dosed Albino mouse assessed as mortality after 14 days; assay type: organism-based; details: in vivo, time 14 day
# [33] = Acute toxicity in Albino mouse assessed as change in monocytes at 50 to 2000 mg/kg, po measured after 14 days (reference value: 1%); assay type: organism-based; details: in vivo, 336 h, dose 50-2000 mg/kg, time 14 day
# [34] = Cytotoxicity against african green monkey Vero cells assessed as cell viability at 25 ug/ml by MTT assay; assay type: toxicity, cell-based; details: chlorocebus sabaeus, at 25 µg/mL, read-out: Activity
# [35] = Renal toxicity in Albino mouse assessed as change in tubular capillaries at 50 to 2000 mg/kg, po measured after 14 days; assay type: organism-based; details: in vivo, 336 h, dose 50-2000 mg/kg, time 14 day
# [36] = Pulmonary toxicity in Albino mouse assessed as change in alveoli structure at 50 to 2000 mg/kg, po measured after 14 days; assay type: organism-based; details: in vivo, 336 h, dose 50-2000 mg/kg, time 14 day
# [37] = Hepatotoxicity in Albino mouse assessed as change in hepatic artery at 50 to 2000 mg/kg, po measured after 14 days; assay type: toxicity, organism-based, Liver; details: in vivo, 336 h, dose 50-2000 mg/kg, time 14 day
# [38] = system: Mycobacterium tuberculosis; experiment: Antitubercular activity against Mycobacterium tuberculosis H37Rv incubated for 5 days by microtiter plate method; assay type: functional; details: 120 h, time 5 day
# [39] = Acute toxicity in Albino mouse assessed as mortality at 50 mg/kg, po after 14 days; assay type: organism-based; details: in vivo, 336 h, time 14 day
# [40] = Acute toxicity in Albino mouse assessed as change in eosinophils at 50 to 2000 mg/kg, po measured after 14 days (reference value: 3%); assay type: organism-based; details: in vivo, 336 h, dose 50-2000 mg/kg, time 14 day
# [41] = Cytotoxicity against african green monkey Vero cells assessed as cell viability at 3.125 ug/ml by MTT assay; assay type: toxicity, cell-based; details: chlorocebus sabaeus, at 3.125 µg/mL, read-out: Activity
# [42] = Cytotoxicity against african green monkey Vero cells assessed as cell viability at 100 ug/ml by MTT assay; assay type: toxicity, cell-based; details: chlorocebus sabaeus, at 100 µg/mL, read-out: Activity
# [43] = Acute toxicity in Albino mouse assessed as change in ESR at 50 to 2000 mg/kg, po measured after 14 days (reference value: 10 millimeter); assay type: organism-based; details: in vivo, 336 h, dose 50-2000 mg/kg, time 14 day
# [44] = Cytotoxicity against african green monkey Vero cells assessed as cell viability at 12.5 ug/ml by MTT assay; assay type: toxicity, cell-based; details: chlorocebus sabaeus, at 12.5 µg/mL, read-out: Activity
# [45] = Renal toxicity in Albino mouse assessed as change in Bowman's capsule at 50 to 2000 mg/kg, po measured after 14 days; assay type: organism-based; details: in vivo, 336 h, dose 50-2000 mg/kg, time 14 day
# [46] = Hepatotoxicity in Albino mouse assessed as change in central vein at 50 to 2000 mg/kg, po measured after 14 days; assay type: toxicity, organism-based; details: in vivo, 336 h, dose 50-2000 mg/kg, time 14 day
# [47] = Acute toxicity in Albino mouse assessed as change in RBC count measured per million cells at 50 to 2000 mg/kg, po measured after 14 days (reference value: 9.15 microL); assay type: organism-based, Erythrocyte; details: in vivo, 336 h, dose 50-2000 mg/kg, time 14 day
smiles,measurement,setting,value
O=C1C(Cl)=C(N2C(=O)C(Cl)C2c2ccc(Cl)cc2)C(=O)c2ccccc21 (configuration not stated),Activity,[1],Non-Toxic
same,Activity,[2],134.22 IU/L
same,Activity,[3],136.54 IU/L
same,viability at 6.25 ug/ml,[4],100%
same,Activity,[5],Toxic
same,Activity,[6],42.09 IU/L
same,Activity,[7],Non-Toxic
same,Activity,[8],Non-Toxic
same,Activity,[9],Non-Toxic
same,viability at 50 ug/ml,[10],24.2%
same,Activity,[11],Non-Toxic
same,Activity,[12],13.1 g/dL
same,Activity,[13],Non-Toxic
same,Activity,[14],Non-Toxic
same,Activity,[15],56.19 mg/dL
same,Activity,[16],6.1
same,Activity,[17],9400 mm3
same,Activity,[18],Non-Toxic
same,Activity,[19],Non-Toxic
same,Activity,[20],433.93 IU/L
same,Activity,[21],70%
same,Activity,[22],Non-Toxic
same,Activity,[23],Dose-Dependent Effect
same,Activity,[24],Non-Toxic
same,Activity,[25],0.41 mg/dL
same,Activity,[26],44%
same,Activity,[27],Non-Toxic
same,Activity,[28],Toxic
same,Activity,[29],Non-Toxic
same,Activity,[30],Non-Toxic
same,Activity,[31],Non-Toxic
same,LD50 at 336 h,[32],50 mg/kg
same,Activity,[33],1%
same,viability at 25 ug/ml,[34],38%
same,Activity,[35],Non-Toxic
same,Activity,[36],Non-Toxic
same,Activity,[37],Non-Toxic
same,MIC,[38],7.69 µM
same,Activity,[39],Non-Toxic
same,Activity,[40],4%
same,viability at 3.125 ug/ml,[41],100%
same,viability at 100 ug/ml,[42],8.6%
same,Activity,[43],14 millimeter/hr
same,viability at 12.5 ug/ml,[44],69.1%
same,Activity,[45],Non-Toxic
same,Activity,[46],Non-Toxic
same,Activity,[47],9.6
